From patent US20150119394A1, “Insulin-Like Growth Factor-1 Receptor Inhibitors” (Merck Sharp & Dohme Corp., priority 2012, published 2015) come the findings set out here.

T1 sequence (P08069 999-1274 limits assumed): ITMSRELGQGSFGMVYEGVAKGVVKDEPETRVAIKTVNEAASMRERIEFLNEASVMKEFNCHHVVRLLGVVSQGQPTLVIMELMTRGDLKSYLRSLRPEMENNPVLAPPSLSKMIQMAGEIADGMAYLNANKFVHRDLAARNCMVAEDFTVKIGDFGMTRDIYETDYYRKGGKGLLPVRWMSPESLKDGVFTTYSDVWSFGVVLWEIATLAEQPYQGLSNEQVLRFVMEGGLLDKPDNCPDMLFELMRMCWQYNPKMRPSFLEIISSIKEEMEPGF

This experiment has as its target T1, intracellular kinase domain of human IGF-1R (GST fusion protein) (Homo sapiens, UniProt P08069).
T1 construct: IGFRK and IRK enzyme used for the assay was intracellular kinase domain of human IGF-1R; GST; made in house
The experiment is described as follows: In vitro IGF-1R kinase assay (HTRF). It counts as biochemical. The settings on record: ATP 20 μM, IGFRK 0.25 nM. The procedure:
The in vitro kinase assays using IGF-1R and IR kinase GST fusion proteins were conducted using a homogeneous time-resolved fluorescence (HTRF) format. Kinase reactions were carried out in a 384-well plate format in a final volume of 20 μL. The standard enzyme reaction buffer consisted of 50 mM Tris HCL (pH: 7.4), 1 mM EGTA, 10 mM MgCl2, 2 mM DTT, 0.01% Tween-20, IGF-1R/IR kinase enzyme, poly GT peptide substrate (Perkin Elmer [Ulight Glu-Tyr (4:1)]n) and ATP [concentration equivalent to Kmapp] […] Briefly, 2.5 μL enzyme and 2.5 μL inhibitor was preincubated for 10 minutes at 23° C. followed by the addition of 2.5 μL of poly GT substrate (final concentration of 50 nM). Reaction was initiated with the addition of 2.5 μL of ATP (final concentration of 20 μM for IGF-1R assay and 10 μM for IR assay). After 1 hour incubation at 23° C., the kinase reaction was stopped with the addition of 5 μL EDTA (final concentration of 10 mM in 20 μL). Europium cryptate—labeled antiphosphotyrosine antibody PY20 (5 μL) was added (final concentration of 2 nM) and the mixture was allowed to equilibrate for 1 hour at 23° C. followed by reading the plate in an Envision plate reader.
The intensity of light emission at 665 nm was directly proportional to the level of substrate phosphorylation. The IC50 values for inhibitors were determined by a four-parameter sigmoidal curve fit (Sigma plot or Graph pad).
IGFRK and IRK enzyme used for the assay was intracellular kinase domain of human IGF-1R and human IR cloned and expressed as GST fusion proteins using the baculovirus expression system and purified using glutathione—Sepharose column.
On the technique in general: Time-resolved FRET reads energy transfer from a long-lived donor to a nearby acceptor.
The term IC50 denotes the concentration that gives 50% inhibition. The low end stands for inhibition by little substance, the high end for a need for much substance. `Cc1cc(-c2ccc(OC[C@@H]3CN(S(=O)(=O)c4c(C(N)=O)[nH]c5ccc(Cl)cc45)CCO3)cc2)cc(C)n1` [Compound 82, (S)-5-chloro-3-((2-((4-(2,6-dimethylpyridin-4-yl)phenoxy)methyl)morpholino)sulfonyl)-1H-indole-2-carboxamide]: half-maximal inhibition (IC50) required 13.2 nM.
In the case of `NC(=O)c1[nH]c2ccc(Cl)cc2c1S(=O)(=O)N1CCO[C@H](COc2ccc(-c3ccccc3)nc2)C1` [Compound 79, (S)-5-chloro-3-((2-(((6-phenylpyridin-3-yl)oxy)methyl)morpholino)sulfonyl)-1H-indole-2-carboxamide], the concentration for half-maximal inhibition (IC50) is 25.4 nM.
Turning to `NC(=O)c1[nH]c2ccc(Cl)cc2c1S(=O)(=O)N1CCO[C@H](COc2ccc(-c3ccccc3)cn2)C1` [Compound 81, (S)-5-chloro-3-((2-(((5-phenylpyridin-2-yl)oxy)methyl)morpholino)sulfonyl)-1H-indole-2-carboxamide], the half-inhibitory concentration (IC50) is > 1000 nM.
To `NC(=O)c1[nH]c2ccc(Cl)cc2c1S(=O)(=O)N1CCO[C@H](COc2ncnc3ccccc23)C1` [Compound 91, (S)-5-chloro-3-((2-((quinazolin-4-yloxy)methyl)morpholino)sulfonyl)-1H-indole-2-carboxamide] belongs > 100 nM; to `Cc1cc(OC[C@@H]2CN(S(=O)(=O)c3c(C(N)=O)[nH]c4ccc(Cl)cc34)CCO2)ccc1-c1ccc(F)nc1` [Compound 73, (S)-5-chloro-3-((2-((4-(6-fluoropyridin-3-yl)-3-methylphenoxy)methyl)morpholino)sulfonyl)-1H-indole-2-carboxamide], 30 nM; to `COc1cc(-c2cccc(OC[C@@H]3CN(S(=O)(=O)c4c(C(N)=O)[nH]c5ccc(Cl)cc45)CCO3)c2)ccn1` [Compound 18, (S)-5-chloro-3-((2-((3-(2-methoxypyridin-4-yl)phenoxy)methyl)morpholino)sulfonyl)-1H-indole-2-carboxamide], 7.3 nM.
Take `NC(=O)c1[nH]c2ccc(Cl)cc2c1S(=O)(=O)N1CCO[C@H](COc2ccc(-c3ccc(C(F)(F)F)nc3)cc2)C1` [Compound 35, (S)-5-chloro-3-((2-((4-(6-(trffluoromethyl)pyridin-3-yl)phenoxy)methyl)morpholino)sulfonyl)-1H-indole-2-carboxamide]: the IC50 was > 1000 nM.
Regarding “(S)-5-chloro-3-((2-((5-(4-methoxyphenyl)pyridin-3-yl)oxy)methyl)morpholino)sulfonyl)-1H-indole-2-carboxamide [Compound 74]”, the half-maximal inhibitory concentration (IC50) was > 1000 nM.
On to `NC(=O)c1[nH]c2ccc(Cl)cc2c1S(=O)(=O)N1CCO[C@H](COc2cccc(-c3cccc(F)c3)c2)C1` [Compound 12, (S)-5-chloro-3-((2-(((3′-fluoro-[1,1′-biphenyl]-3-yl)oxy)methyl)morpholino)sulfonyl)-1H-indole-2-carboxamide], for which the IC50 was > 100 nM.
Turning to `NC(=O)c1[nH]c2ccc(Cl)cc2c1S(=O)(=O)N1CCO[C@H](COc2ccc(-c3cccnc3F)cc2)C1` [Compound 49, (S)-5-chloro-3-((2-((4-(2-fluoropyridin-3-yl)phenoxy)methyl)morpholino)sulfonyl)-1H-indole-2-carboxamide], the IC50 stood at 5 nM.
Compound “(S)-5-chloro-3-((2-((3′-(dimethylamino)-[1,1′-biphenyl]-3-yl)oxy)methyl)morpholino)sulfonyl)-1H-indole-2-carboxamide [Compound 9]” came in with a half-inhibitory concentration (IC50) of 220 nM.
Consider `NC(=O)c1[nH]c2ccc(Cl)cc2c1S(=O)(=O)N1CCO[C@H](COc2ccc(F)c(-c3cncnc3)c2)C1` [Compound 27, (S)-5-chloro-3-((2-((4-fluoro-3-(pyrimidin-5-yl)phenoxy)methyl)morpholino)sulfonyl)-1H-indole-2-carboxamide], for which the half-inhibitory concentration (IC50) is 4.7 nM.
In turn, `Cc1ccc(-c2cccc(OC[C@@H]3CN(S(=O)(=O)c4c(C(N)=O)[nH]c5ccc(Cl)cc45)CCO3)c2)cn1` [Compound 4, (S)-5-chloro-3-((2-((3-(6-methylpyridin-3-yl)phenoxy)methyl)morpholino)sulfonyl)-1H-indole-2-carboxamide] came in with an IC50 of 11.8 nM.
